Assay results reported in patent US20100286090A1, “Treatment of Multiple Myeloma” (BRISTOL-MYERS SQUIBB COMPANY, priority 2005, published 2010).

System: MM cell lines
Assay: effect of dasatinib on cell viability of MM cell lines
Type: cell-based
Conditions: Homo sapiens; in 8/15 MM cell lines tested
Source text: FIG. 1 illustrates results obtained on the effect of dasatinib at varying concentrations on the cell viability of certain MM cell lines.
Described herein are studies on the oral, multi-targeted kinase inhibitor dasatinib (BMS-354825, Bristol-Myers Squibb Co.) which inhibits BCR-ABL, SRC, c-KIT, PDGF-R, and ephrin (EPH) receptor kinases. Although BCR-ABL and c-KIT are not primary oncogenes driving MM proliferation and survival, dasatinib was studied because of (a) emerging data from our laboratory (CS Mitsiades, unpublished observations) on the expression patterns of EPH receptors in MM cell lines and primary tumor specimens; and (b) the roles of PDGF-R and SRC in tumor-microenvironment interactions, e.g., pericyte function in angiogenesis and osteoclast-mediated bone resorption, respectively.
Dasatinib is active against human MM cells which are resistant to conventional or other investigational treatments. […] For those cell lines highly responsive to dasatinib, their IC50 was in a range of concentrations which are deemed clinically achievable levels (based on data derived from the ongoing clinical trials of this compound in other disease setting).

With `Cc1nc(Nc2ncc(C(=O)Nc3c(C)cccc3Cl)s2)cc(N2CCN(CCO)CC2)n1` [dasatinib] the IC50 was under 100 nM.
